Columns and labels:
cAMP phosphodiesterase = assay: Generation of an enzyme modulator from liver plasma membranes, cAMP phosphodiesterase readout; assay type: biochemical, rat
Protocol: (§1) Purification of the Enzyme Modulator. Bovine liver particulate fraction was prepared as described previously [Saltiel A. R., (1984) "Preparation and Characterization of Putative Insulin Mediators from Liver", METHODS IN DIABETES […], eds. J. Larner, S. Pohl, I:73]. Solutions were incubated in 5 mM ammonium bicarbonate, pH 7.4 with 10 nM insulin or 1 ug/ml PI-PLC as described in the figure legends. Following incubation, solutions were acidified to pH 4.0 and centrifuged at 35,000 x g for 20 minutes. Resulting supernatants were extracted with chloroform/methanol (2:1). The upper aqueous phase was aspirated and methanol was evaporated. Enzyme modulating activities were purified as described in Publication No. 6 listed earlier herein. Briefly, the extract was chromatographed on DEAE-Cellulose and eluted with 0.25M triethylamine (TEA)-formate, pH 3.75. This was followed by chromatography on C-18 reversed phase resin, in the same buffer, followed by Dowex 50W X-4 in 50 mM TEA-formate, pH 3.0. The resulting eluate was lyophilized, resuspended in 50 mM TEA-formate, pH 4.5 and sequentially chromatographed on QAE-Sephadex, SAX HPLC and a P-2 gel filtration column. Only the cyclic inositol phosphate derivative residing in Peak I was examined.
(§2) Enzyme Assays. The low Km cAMP PDE was assayed in a rat adipocyte particulate fraction as previously described [Saltiel, A. R., Steigerwalt,R. W., (1986) "Purification of Putative Insulin-Sensitive cAMP Phosphodiesterase or its Catalytic Domain From Rat Adipocytes", DIABETES, 35:698] and as later modified in Publication No. 6. Activity was linear throughout 20 min. and proportional to protein concentration. Only the low Km species of the enzyme was present in this fraction. PDH activity was assayed in liver mitoplasts after preincubation with ATP as previously described [Saltiel et al., (1982) PROC. NATL. ACAD. SCI. U.S.A., 79:3513.]. Adenylate cyclase activity was also assayed in purified adipocyte plasma membranes. For all enzyme assays, variability was less than 5%.
(§3) Liver membranes were treated with or without 10 nM insulin or 1 ug/ml PI-PLC for 10 min. at 37° C. Following cetrifugation, the supernatants were extracted and purified up to and including the SAX HPLC step. Purified extracts were added to enzyme assays at a final dilution of 1:10. Enzyme activities were assayed with no additions or after addition of purified extracts from control, insulin or PIPPLC treated membrane. Percent of basal activity is expressed in parentheses. ^1 expressed as pmoles/mg protein-min. ^2 expressed as nmoles/mg protein-min.

Adenylate Cyclase = assay: Generation of an enzyme modulator from liver plasma membranes, adenylate cyclase readout; assay type: biochemical, rat
Protocol: as §1, §2, §3

BC3 Hl cells = assay: Insulin-stimulated labeling/hydrolysis of glycolipid (PI-glycan) precursor and water soluble products in BC3 Hl cells; assay type: cell-based, murine
Protocol: FIG. 7--SAX HPLC of Radiolabeled Mediators from Insulin Treated Cells. BC3 Hl cells were cultured at 37° C. in Dulbecco's Minimal Essential Medium in the presence of 20% NU serum (Collaborative Research) on collagen coated 10 mm miniwells. Cells (1×10^6 /well) were preincubated with 10 uCi (A) [2,6^3 H]myoinositol or (B) [1,6^3 H]glucosamine (New England Nuclear) for 20 hours in the presence of 20% Nu Serum. Insulin was added to cells in monolayer in serum free media at a final concentration of 10 nM. Reactions were terminated by removal of media and addition of 1 ml chloroform/methanol/1N HCl (200:100:1), followed by addition of 0.5 ml 10 mM formic acid. Organic and aqueous phases were separated by centrifugation at 500 x g for 5 min.
The water soluble labeled products were purified by a modification of a previously described protocol for purification of cAMP phosphodiesterase (PDE) modulators. The aqueous phases were chromatographed on DEAE-Cellulose, eluted with 0.25 TEA-formate, pH 3.75. This fraction was eluted through a C-18 reversed phase sepak in the same buffer. Following lyophilization, the solution was eluted through Dowex 50WX-4 in 50 mM TEA-formate. pH 3.0. After exposure to activated charcoal, samples were chromatographed on an SAX HLPC column (Whatman), eluted with a linear, 15 minute gradient of 60% methanol (A) to 0.5M TEA-formate, pH 3.75 (B) at 1 ml/minute. One ml fractions were counted. The two peaks of insulin stimulated radioactivity coeluted with similarly purified, myocyte derived PDE modulating activities.
FIG. 9--Thin Layer Chromatography of the Radiolabeled Precursor from Insulin Treated Cells. (A) [^3 H]inositol and B) [^3 H]glucosaminelabeled cells were treated with or without 10 nM insulin. Following extraction and phase separation, the organic phase were dried under N2, resuspended in chloroform/methanol/H2 O (9:7:2); and spotted on oxalate impregnated Silica gel G plates. These were twice developed in chloroform/acetone/methanol/glacial acetic acid/H2 O (10:4:2:2:1). One cm regions were scraped and radioactivity determined by scintillation counting. Phosphoinositides were identified by iodine staining of standards.
FIG. 11--Time Course of Precursor Hydrolysis by Insulin. Cells prelabeled with [^3 H]inositol were treated with 10 nM insulin for the designated intervals. Cells were extracted and phase separated as detailed in FIG. 7. Aqueous phases were chromatographed up to and including the SAX HPLC step (upper panel). Results reflect counts from a combination of Peaks I and II. The ratio of counts in these peaks were unchanged over the time course. The precursor residing in the organic phases was identified by the peak on TLC with an Rf =0.22, corresponding to the species depleted by PI-PLC (FIG. 10).
Following preincubations with the appropriate isotopes, cells were resuspended in DMEM without serum and treated with 10 nM insulin at the designated intervals. Reactions were terminated by the addition of 1 ml chloroform/methanol/1N HCl (200:100:1), followed by 0.5 ml 10 mM formic acid. Following centrifugation at 500 x g for 5 min., the upper phase was discarded. For phospholipid analyses, the lower, organic phase was dried under N2, resuspended in chloroform/methanol/H2 O (9:7:2) and spotted on oxalate impregnated silica gel G plates. These were sequentially developed in chloroform/acetone/methanol/glacial acidic acid/H2 O (10:4:2:2:1) and chloroform/methanol/4N NH4 OH (45:35:10). One cm regions were scraped and eluted with chloroform/methanol (2:1) and counted. Phosphoinositide standards were identified by iodine staining.

[1] = membranes exposed to 10 nM insulin 10 min.

Q: For Insulin: monocomponent bovine insulin, which “cAMP Phosphodiesterase activity” value (cAMP phosphodiesterase; extract of liver membranes treated with 10 nM insulin or 1 ug/ml PI-PLC 10 min. 37° C., purified to SAX HPLC, dilution 1:10, no addition 61.7±4.2, control membranes 78.5±5.6) is on record?
A: 146±3 pmoles/mg protein-min.

Q: What about the “stimulation of PDE by the substance generated” value (cAMP phosphodiesterase; [1]) of the same substance?
A: 2-3 fold

Q: What about the “Adenylate Cyclase activity” value (Adenylate Cyclase; extract as E41, no addition 272±14, control membranes 210±4) of the same substance?
A: 72.0±3.7 pmoles/mg protein-min.

Q: And the “inhibition of adenylate cyclase by the substance generated” value (Adenylate Cyclase; [1])?
A: 75%

Q: What about the “production of [3H]inositol containing products (Peaks I and II combined), share of the maximal effect” value (BC3 Hl cells; 10 nM insulin, after 30 sec) of the same substance?
A: Seventy

Q: And the “increase of [3H]inositol radioactivity in the precursor over control levels” value (BC3 Hl cells; 10 nM insulin, after the initial decrease)?
A: 60%

Q: And the “decrease in [3H]inositol counts in the precursor” value (BC3 Hl cells; 10 nM insulin, at 30 sec)?
A: 20%

Q: What about the “decrease in [3H]inositol labeling of the PI-glycan” value (BC3 Hl cells; Example IV, after 30 seconds of insulin exposure) of the same substance?
A: 20%

Q: What about the “decrease in [3H]myristate labeling of the PI-glycan” value (BC3 Hl cells; Example IV, by 1 min. of insulin) of the same substance?
A: 60%

Q: And the “gradual increase in [3H]inositol counts of the PI-glycan” value (BC3 Hl cells; Example IV, following the initial decrease)?
A: 40%

Q: And the “time until [3H]myristate labeling of the PI-glycan returned to basal levels” value (BC3 Hl cells; Example IV, insulin)?
A: 20 to 30 min

Q: What about the “increase of [3H]glucosamine incorporation in the precursor glycolipid peak” value (BC3 Hl cells; insulin 10 nM for 10 min., TLC) of the same substance?
A: approximately 40%

Q: What about the “increase of [3H]inositol incorporation in the precursor glycolipid peak” value (BC3 Hl cells; insulin 10 nM for 10 min., TLC) of the same substance?
A: approximately 40%

Reference: US4839466A, “Insulin activity messengers” (The Rockefeller University, priority 1987, dated 1989)
